Data reported in patent US12600728B2, “Interleukin-17 inhibitors” (priority 2020, dated 2026).
Like-named read-outs stand apart in the source and are kept apart here.

How the values were obtained:
[1] = target: biotinylated human IL-17A / AF647-labeled human IL-17RA (Homo sapiens, UniProt Q16552); test: Human IL-17A×IL-17RA TR-FRET assay; format: binding
Summary of the method: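 Compounds tested in duplicate at each concentration; neutral controls contain all components with DMSO in place of compound.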

[2] = target: recombinant human IL-17AA (Homo sapiens, UniProt Q16552); test: IL-6 release from NHDF cells, IL-17AA plus TNF-α stimulation; format: cell-based; settings: 24 hours, IL-6 by ELISA
Sequence of recombinant human IL-17AA (Q16552 24-155): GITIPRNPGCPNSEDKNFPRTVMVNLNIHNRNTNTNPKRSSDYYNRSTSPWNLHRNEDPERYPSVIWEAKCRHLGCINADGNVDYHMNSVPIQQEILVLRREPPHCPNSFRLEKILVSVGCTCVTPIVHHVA
Summary of the method: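 IL-17-specific IL-6 release from NHDF cells adhered overnight; compounds pre-incubated 30 min at room temperature with human IL-17AA plus TNF-α, then 24 h on cells at 37° C. Final DMSO 0.1% or plasma 20%; IL-6 by ELISA (450 nm). TNF-α-only IL-6 subtracted before IC50 fit.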

[3] = TR-FRET, 5 nM IL-17A, 30 nM IL-17RA, read-out: IL17AA FRET/ IL17Rawt IC50
[4] = NHDF cells, IL-17AA 30 pM + TNF-α 6 pM, read-out: IL17AA + TNF IC50 IL-6
[5] = TR-FRET, biotinylated human IL-17A 5 nM, AF647-labeled human IL-17RA 30 nM, read-out: IL17AA FRET/ IL17Rawt IC50
[6] = NHDF cells, IL-17AA 30 pM plus TNF-α 6 pM, read-out: IL17AA + TNF IC50 IL-6
[7] = IL17AA FRET/ IL17Rawt IC50, TR-FRET, biotinylated human IL-17A 5 nM, AF647-labeled human IL-17RA 30 nM
[8] = IL17AA + TNF IC50 IL-6, NHDF cells, IL-17AA 30 pM plus TNF-α 6 pM

Sequence of biotinylated human IL-17A / AF647-labeled human IL-17RA (Q16552 24-155): as above

Row | IC50 [1, 3] [nM] | IC50 [2, 4] [nM] | IC50 [1, 5] [nM] | IC50 [2, 6] [nM] | Compound | also measured
1 | – | – | 236 | 12 | Cc1cc[n+]([O-])c(C)c1-c1ccc(NC(=O)[C@@H](NC(=O)c2ccc3n2CCN(C)C3)C2CCCCC2)cc1 [Example 127, (S)-3-(4-(2-cyclohexyl-2-(2-methyl-1,2,3,4-tetrahydropyrrolo[1,2-a]pyrazine-6-carboxamido)acetamido)phenyl)-2,4-dimethylpyridine 1-oxide] | –
2 | 110 | 51.5 | – | – | Cc1cc[n+]([O-])c(C)c1-c1ccc(NC(=O)C(NC(=O)c2ccnn2C)C2CCCCC(F)(F)C2)cc1 (stereo not drawn) [Example 156, 3-(4-(2-(3,3-difluorocycloheptyl)-2-(1-methyl-1H-pyrazole-5-carboxamido)acetamido)phenyl)-2,4-dimethylpyridine 1-oxide] | –
3 | – | – | 1600 | 139 | Cc1cc[n+]([O-])c(C(F)F)c1-c1ccc(NC(=O)[C@@H](NC(=O)c2ccnn2C)C2CCCCC2)cc1 [Example 104, (S)-3-(4-(2-cyclohexyl-2-(1-methyl-1H-pyrazole-5-carboxamido)acetamido)phenyl)-2-(difluoromethyl)-4-methylpyridine 1-oxide] | –
4 | – | – | 58 | 31 | Cc1nocc1C(=O)N[C@H](C(=O)Nc1ccc(-c2c(Cl)cc[n+]([O-])c2C)cc1)C1CCC(F)(F)CC1 [Example 49, (S)-4-chloro-3-(4-(2-(4,4-difluorocyclohexyl)-2-(3-methylisoxazole-4-carboxamido)acetamido)phenyl)-2-methylpyridine 1-oxide] | –
5 | – | – | 396 | 60 | Cc1cc[n+]([O-])c(C)c1-c1ccc(NC(=O)[C@@H](NC(=O)c2conc2C)C2CCCC2)cc1 [Example 37, (S)-3-(4-(2-cyclopentyl-2-(3-methylisoxazole-4-carboxamido)acetamido)phenyl)-2,4-dimethylpyridine 1-oxide] | –
6 | – | – | 39 | 31 | CCn1nccc1C(=O)N[C@H](C(=O)Nc1ccc(-c2c(C(F)(F)F)cc[n+]([O-])c2C)cc1)C1CCCC1 [Example 21, (S)-3-(4-(2-cyclopentyl-2-(1-ethyl-1H-pyrazole-5-carboxamido)acetamido)phenyl)-2-methyl-4-(trifluoromethyl)pyridine 1-oxide] | –
7 | – | – | 81 | 100 | CCc1nocc1C(=O)N[C@H](C(=O)Nc1ccc(-c2c(C)cc[n+]([O-])c2C)cc1)C1CCCC1 [Example 34, (S)-3-(4-(2-cyclopentyl-2-(3-ethylisoxazole-4-carboxamido)acetamido)phenyl)-2,4-dimethylpyridine 1-oxide] | –
8 | 391 | 339 | – | – | Cc1cc(-c2ccc(NC(=O)[C@@H](NC(=O)c3conc3C)C3CCC(F)(F)CC3)cc2)c(C)[n+]([O-])c1 [Example 169, (S)-3-(4-(2-(4,4-difluorocyclohexyl)-2-(3-methylisoxazole-4-carboxamido)acetamido)phenyl)-2,5-dimethylpyridine 1-oxide] | –
9 | – | – | 306 | 212 | CCn1nccc1C(=O)N[C@H](C(=O)Nc1ccc(-c2c(C)cc[n+]([O-])c2C)cc1)C1CCCC1 [Example 35, (S)-3-(4-(2-cyclopentyl-2-(1-ethyl-1H-pyrazole-5-carboxamido)acetamido)phenyl)-2,4-dimethylpyridine 1-oxide] | –
10 | 155 | 210 | – | – | Cc1cc[n+]([O-])c(C)c1-c1ccc(NC(=O)[C@@H](NC(=O)c2cnn(C)c2C)C2CCCCC2)cc1 [Example 167, (S)-3-(4-(2-cyclohexyl-2-(1,5-dimethyl-1H-pyrazole-4-carboxamido)acetamido)phenyl)-2,4-dimethylpyridine 1-oxide] | –
11 | – | – | 125 | 19 | Cc1cc[n+]([O-])c(C)c1-c1ccc(NC(=O)[C@@H](NC(=O)c2ccnn2C)C2CCCCC2)cc1F [Example 95, 3-(4-((S)-2-cyclohexyl-2-(1-methyl-1H-pyrazole-5-carboxamido)acetamido)-2-fluorophenyl)-2,4-dimethylpyridine 1-oxide] | –

The next lines start with the compound.

Row | Compound | IC50 [1, 3] [nM] | IC50 [2, 4] [nM] | IC50 [1, 5] [nM] | IC50 [2, 6] [nM] | also measured
12 | Cc1c(-c2ccc(NC(=O)[C@@H](NC(=O)c3ccc4n3CCNC4)C3CCC(F)(F)CC3)cc2F)c(Cl)cc[n+]1[O-] [Example 179, 4-chloro-3-(4-((S)-2-(4,4-difluorocyclohexyl)-2-(1,2,3,4-tetrahydropyrrolo[1,2-a]pyrazine-6-carboxamido)acetamido)-2-fluorophenyl)-2-methylpyridine 1-oxide] | 13.9 | 60 | – | – | –
13 | Cc1cc[n+]([O-])c(C)c1-c1ccc(NC(=O)C(NC(=O)c2ccnn2C)C2CCC(C(F)(F)F)CC2)cc1F [Example 91, 3-(2-fluoro-4-((S)-2-(1-methyl-1H-pyrazole-5-carboxamido)-2-((1r,4S)-4-(trifluoromethyl)cyclohexyl)acetamido)phenyl)-2,4-dimethylpyridine 1-oxide] | – | – | – | – | IC50 [1, 7]: 134 nM; IC50 [2, 8]: 39 nM
14 | Cc1cc[n+]([O-])c(C)c1-c1ccc(NC(=O)[C@H](Cc2ccccc2F)NC(=O)c2conc2C)cc1 [Example 72, (S)-3-(4-(3-(2-fluorophenyl)-2-(3-methylisoxazole-4-carboxamido)propanamido)phenyl)-2,4-dimethylpyridine 1-oxide] | – | – | 454 | 3400 | –
15 | Cc1c(-c2ccc(NC(=O)[C@@H](NC(=O)c3ccc4n3CCN(C)C4)C3CCCCC3)cc2F)ccc[n+]1[O-] [Example 126, (S)-3-(4-(2-cyclohexyl-2-(2-methyl-1,2,3,4-tetrahydropyrrolo[1,2-a]pyrazine-6-carboxamido)acetamido)-2-fluorophenyl)-2-methylpyridine 1-oxide] | – | – | 228 | 62 | –
16 | Cc1c(-c2cc(F)c(NC(=O)[C@@H](NC(=O)c3ccnn3C)C3CCCCC3)cc2F)c(Cl)cc[n+]1[O-] [Example 63, 4-chloro-3-(4-((S)-2-cyclohexyl-2-(1-methyl-1H-pyrazole-5-carboxamido)acetamido)-2,5-difluorophenyl)-2-methylpyridine 1-oxide] | – | – | 247 | 57 | –
17 | CC(=O)N1CCn2c(ccc2C(=O)N[C@H](C(=O)Nc2ccc(-c3c(Cl)cc[n+]([O-])c3C)cc2F)C2CCCCC2)C1 [Example 184, (S)-3-(4-(2-(2-acetyl-1,2,3,4-tetrahydropyrrolo[1,2-a]pyrazine-6-carboxamido)-2-cyclohexylacetamido)-3-fluorophenyl)-4-chloro-2-methylpyridine 1-oxide] | 59.9 | 11 | – | – | –
18 | Cc1c(-c2ccc(NC(=O)[C@@H](NC(=O)c3ccnn3C)C3CCCCC3)cc2)cc(Cl)c[n+]1[O-] [Example 175, (S)-5-chloro-3-(4-(2-cyclohexyl-2-(1-methyl-1H-pyrazole-5-carboxamido)acetamido)phenyl)-2-methylpyridine 1-oxide] | – | – | – | – | IC50 ([1]; IL17AA FRET/ IL17Rawt IC50, TR-FRET, 5 nM IL-17A, 30 nM IL-17RA): 846 nM; IC50 ([2]; IL17AA + TNF IC50 IL-6, NHDF cells, IL-17AA 30 pM + TNF-α 6 pM): 130 nM
19 | Cc1cc[n+]([O-])c(C)c1-c1ccc(NC(=O)[C@H](Cc2ccccc2Cl)NC(=O)c2ccnn2C)cc1 [Example 180, (S)-3-(4-(3-(2-chlorophenyl)-2-(1-methyl-1H-pyrazole-5-carboxamido)propanamido)phenyl)-2,4-dimethylpyridine 1-oxide] | 52 | 372 | – | – | –
20 | Cc1c[n+]([O-])cc(C)c1-c1ccc(NC(=O)[C@@H](NC(=O)c2ccnn2C2CCC2)C2CCCCCC2)cc1 [Example 102, (S)-4-(4-(2-(1-cyclobutyl-1H-pyrazole-5-carboxamido)-2-cycloheptylacetamido)phenyl)-3,5-dimethylpyridine 1-oxide] | – | – | 123 | 17 | –
21 | Cc1c(-c2ccc(NC(=O)[C@@H](NC(=O)c3ccc4n3CCN(C)C4)C3CCC(F)(F)CC3)cc2)c(Cl)cc[n+]1[O-] [Example 123, (S)-4-chloro-3-(4-(2-(4,4-difluorocyclohexyl)-2-(2-methyl-1,2,3,4-tetrahydropyrrolo[1,2-a]pyrazine-6-carboxamido)acetamido)phenyl)-2-methylpyridine 1-oxide] | – | – | 150 | 59 | –
22 | CCn1nccc1C(=O)NC(C(=O)Nc1ccc(-c2c(Cl)cc[n+]([O-])c2C)cc1)C1CC2CC2C1 (single isomer, unassigned) [Example 209] | 381 | 175 | – | – | –
23 | Cc1c(-c2ccc(NC(=O)C(NC(=O)c3ccc4n3CCN(C)C4)C3CC4CC4C3)cc2F)c(Cl)cc[n+]1[O-] (stereo not drawn) [Example 203, 3-(4-(2-(bicyclo[3.1.0]hexan-3-yl)-2-(2-methyl-1,2,3,4-tetrahydropyrrolo[1,2-a]pyrazine-6-carboxamido)acetamido)-2-fluorophenyl)-4-chloro-2-methylpyridine 1-oxide] | 257 | 39 | – | – | –
24 | Cc1c(-c2ccc(NC(=O)[C@@H](NC(=O)c3ccnn3C)C3CCCCC3)cc2)c(Cl)cc[n+]1[O-] [Example 45, (S)-4-chloro-3-(4-(2-cyclohexyl-2-(1-methyl-1H-pyrazole-5-carboxamido)acetamid)phenyl)-2-methylpyridine 1-oxide] | – | – | – | – | IC50 [1, 7]: 26 nM; IC50 [2, 8]: 26 nM
